IC50 data for 4 molecules are collected here from US20250257075A1, “MACROCYCLIC INHIBITORS OF KRAS FOR THE TREATMENT OF CANCER” (Hoffmann-La Roche Inc., priority 2022, published 2025).

Some results are limits rather than exact numbers.

For one assay, the system named is SW620 cells (KRAS G12V). Nature of the assay: Cell viability assay, G12V. The assay is classed as cell-based, human. Conditions: Homo sapiens, SW-620; SW620, 72 hrs, Cell Counting Kit-8. The method in brief:
(§1)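 Cells were seeded at 5,000 cells/well (NCI-H358) or 2,000 cells/well (AGS, SW620), incubated overnight, then treated with compounds in 0.5% DMSO final for 72 hrs. CCK-8 was added and OD450 minus OD650 read after 2 hrs; IC50 came from a 4-parameter sigmoidal fit.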

Assay [1] addresses T1, KRAS G12C-BRAF complex (Homo sapiens, UniProt P01116+P62937, G12C).
T1 construct: expressed in transfected cells
Nature of the assay: KRAS G12C-BRAF NanoBit assay in HEK293 cells. It counts as cell-based. To be noted: HEK293 stable cell pool, 3 hours of incubation. The gist of the method: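 HEK293 stable pool co-expressing SmBiT-KRAS G12C and BRAF RBD-LgBiT, exposed 3 h to compounds (16-point 3-fold dilution, top final 30 μM). Luminescence was read 20 min after Nano-Glo Live Cell substrate addition. A decrease versus DMSO control indicates disruption of the complex.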

Assay [2] deals with phosphorylation of ERK, KRAS G12D in AGS cells. The assay can be described thus: pERK inhibition assay, G12D. The assay is classed as cell-based, human. Conditions: Homo sapiens, 4 hours of incubation. The gist of the method:
(§2)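 NCI-H358 (G12C), AGS (G12D) and SW620 (G12V) cells were seeded overnight at 30,000, 20,000 and 30,000 cells/well, respectively. They were then treated 4 h with compound (0.5% DMSO final), fixed, and methanol-permeabilized. pERK was detected by in-cell ELISA (anti-pERK/HRP, TMB, OD450); IC50 from a 4-parameter sigmoidal fit.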

Assay [3] deals with T1, KRAS G12C-BRAF complex. The assay can be described thus: KRAS-BRAF with CYPA (500 nM) interaction assay (TR-FRET), G12C. The assay is classed as biochemical. To be noted: 3 hours. The gist of the method:
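TR-FRET (Ex320 nm, Em 665/615 nm) measured compound- or compound-CYPA-dependent disruption of KRAS-BRAF complex, with CYPA at 500 nM. Disruption scored as decrease in TR-FRET ratio versus DMSO control wells.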

The next assay relates to AGS cells (KRAS G12D). Nature of the assay: Cell viability assay, G12D. It counts as cell-based, human. To be noted: Homo sapiens, 72 hrs, Cell Counting Kit-8. The method in brief:
as §1

In assay [4] the test system is phosphorylation of ERK, KRAS G12V in SW620. The assay can be described thus: pERK inhibition assay, G12V. The assay is classed as cell-based, human. To be noted: Homo sapiens, SW-620; SW620, 4 hours of incubation. The method in brief: as §2

T1 sequence (P01116 1-188 isoform P01116-2 G12C): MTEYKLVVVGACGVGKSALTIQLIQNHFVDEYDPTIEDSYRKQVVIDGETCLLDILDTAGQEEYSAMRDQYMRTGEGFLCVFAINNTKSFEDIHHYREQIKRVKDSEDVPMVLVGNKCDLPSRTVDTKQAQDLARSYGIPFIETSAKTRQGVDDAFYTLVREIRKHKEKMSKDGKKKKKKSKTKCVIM
T1 sequence (P62937 whole entry): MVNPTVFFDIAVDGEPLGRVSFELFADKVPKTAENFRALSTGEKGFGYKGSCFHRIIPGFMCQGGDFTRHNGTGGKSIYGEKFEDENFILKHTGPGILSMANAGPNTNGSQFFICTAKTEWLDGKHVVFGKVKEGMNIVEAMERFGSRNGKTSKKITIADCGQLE

Regarding `CO[C@@H](C)c1ncc(N2CCN(C)CC2)cc1-c1c2c3cc(c(F)cc3n1CC(F)(F)F)-c1csc(n1)C[C@H](NC(=O)[C@H](C(C)C)N(C)C(=O)[C@H]1C[C@@H](C#CC(F)(F)F)C1)C(=O)N1CCC[C@H](N1)C(=O)OCC(C)(C)C2` (atropisomer, axis not shown; (M)) [Example 3, cis-N-[(1S)-1-[[(7S,13S)-24-fluoro-(20M)-20-[2-[(1S)-1-methoxyethyl]-5-(4-methylpiperazin-1-yl)-3-pyridyl]-17,17-dimethyl-8,14-dioxo-21-(2,2,2-trifluoroethyl)-15-oxa-4-thia-9,21,27,28-tetrazapentacyclo[17.5.2.1^2,5.1^9,13.0^22,26]octacosa-1(25),2,5(28),19,22(26),23-hexaen-7-yl]carbamoyl]-2-methyl-propyl]-N-methyl-3-(3,3,3-trifluoroprop-1-ynyl)cyclobutanecarboxamide], the IC50 came to 2.18 µM in the assay with SW620 cells (KRAS G12V); 0.036 µM on KRAS G12C-BRAF complex [1]; 0.378 µM in assay [2]; 0.099 µM on KRAS G12C-BRAF complex [3]; 3.57 µM in the assay with AGS cells (KRAS G12D); 0.009 µM in assay [4].
For the molecule `CCn1c(-c2cc(N3CCN(CC(F)(F)F)CC3)cnc2[C@H](C)OC)c2c3cc(c(F)cc31)-c1csc(n1)C[C@H](NC(=O)[C@H](C(C)C)N(C)C(=O)[C@H]1C[C@@H](C#CC(F)(F)F)C1)C(=O)N1CCC[C@H](N1)C(=O)OCC(C)(C)C2` (atropisomer, axis not shown; (M)) [Example 8, cis-N-[(1S)-1-[[(7S,13S)-21-ethyl-24-fluoro-(20M)-20-[2-[(1S)-1-methoxyethyl]-5-[4-(2,2,2-trifluoroethyl)piperazin-1-yl]-3-pyridyl]-17,17-dimethyl-8,14-dioxo-15-oxa-4-thia-9,21,27,28-tetrazapentacyclo[17.5.2.1^2,5.1^9,13.0^22,26]octacosa-1(25),2,5(28),19,22(26),23-hexaen-7-yl]carbamoyl]-2-methyl-propyl]-N-methyl-3-(3,3,3-trifluoroprop-1-ynyl)cyclobutanecarboxamide], the IC50 was over 5 µM in the assay on SW620 cells (KRAS G12V); 0.054 µM against KRAS G12C-BRAF complex [1]; over 10 µM in assay [2]; 0.118 µM against KRAS G12C-BRAF complex [3]; over 5 µM in the assay on AGS cells (KRAS G12D); 0.125 µM in assay [4].
As to `CCn1c(-c2cc(N3CCOCC3)cnc2[C@H](C)OC)c2c3cc(c(F)cc31)-c1csc(n1)C[C@H](NC(=O)[C@H](C(C)C)N(C)C(=O)[C@H]1C[C@@H](C#CC(F)(F)F)C1)C(=O)N1CCC[C@H](N1)C(=O)OCC(C)(C)C2` (atropisomer, axis not shown; (M)) [Example 11, cis-N-[(1S)-1-[[(7S,13S)-21-ethyl-24-fluoro-(20M)-20-[2-[(1S)-1-methoxyethyl]-5-morpholino-3-pyridyl]-17,17-dimethyl-8,14-dioxo-15-oxa-4-thia-9,21,27,28-tetrazapentacyclo[17.5.2.1^2,5.1^9,13.0^22,26]octacosa-1(25),2,5(28),19,22(26),23-hexaen-7-yl]carbamoyl]-2-methyl-propyl]-N-methyl-3-(3,3,3-trifluoroprop-1-ynyl)cyclobutanecarboxamide], the IC50 in the assay with SW620 cells (KRAS G12V) was 1.37 µM; on KRAS G12C-BRAF complex [1] it was 0.012 µM; in assay [2] it was 3.77 µM; on KRAS G12C-BRAF complex [3], 0.065 µM; with AGS cells (KRAS G12D), over 10 µM; in assay [4], 0.187 µM.
Consider `CC#CC(=O)N1CC[C@H](C(=O)N(C)[C@H](C(=O)N[C@H]2Cc3nc(cs3)-c3ccc4c(c3)c(c(-c3cccnc3[C@H](C)OC)n4CC)CC(C)(C)COC(=O)[C@@H]3CCCN(N3)C2=O)C(C)C)C1` [Example A168, reference compound], for which the IC50 in the assay with SW620 cells (KRAS G12V) turned out to be 0.121 µM; on KRAS G12C-BRAF complex [1] it was 0.205 µM; at KRAS G12C-BRAF complex [3] it was 0.173 µM; with AGS cells (KRAS G12D) it was 2.19 µM; in assay [4], 0.176 µM.
